Structures can show the parent of a compound that is named as a salt.
Test: in vitro
Details: rat, gh3-tre-luc cells

Row | Compound | CC50 at 24 h (AC50 (uM) modified / 1000) [µM] | other results
1 | O=c1cc(CO)occ1O [Kojic acid] | > 50 | 
2 | CCCCCC/C=C/CCCCCCCC(=O)O [(E)-Hexadec-9-enoic acid] | > 90 | 
3 | CCSCC [Diethyl sulfide] | > 100 | 
4 | O=C(O)CCCl [3-Chloropropanoic acid] | > 90 | 
5 | CCCSC(=O)Cl [S-(Propyl) chlorothioformate] | > 90 | 
6 | Cc1ccc(C(C)C)cc2c(C)ccc1-2 [Guaiazulene] | > 50 | 
7 | CCCCC(CC)CN1C(=O)[C@@H]2[C@H](C1=O)[C@@H]1C=C[C@H]2C1 (stereo partly shown) [Octylbicycloheptenedicarboximide] | 53.7 | 
8 | CC(Oc1ccc(Cl)cc1Cl)C(=O)O (stereo not shown) [Dichlorprop] | > 90 | 
9 | CCC(=O)CC [3-Pentanone] | > 90 | 
10 | COc1cc(Cc2cnc(N)nc2N)cc(OC)c1OC [Trimethoprim] | > 90 | 
11 | CCCCCCCCCCCCCOP(=O)(O)O [Monotridecyl phosphate] | > 90 | 
12 | C[C@H](CN1CCCC1)C(=O)c1ccc(C(F)(F)F)cc1 [Lanperisone hydrochloride] | > 50 | 
13 | CN1C[C@H](CNC(=O)OCc2ccccc2)C[C@@H]2c3cccc4c3c(cn4C)C[C@H]21 [Metergoline] | 8.07 | 
14 | O=Cc1c2ccccc2c(Cl)c2ccccc12 [10-Chloro-9-anthraldehyde] | > 50 | 
15 | COC(=O)c1cc(Cl)cc(Cl)c1 [Methyl 3,5-dichlorobenzoate] | > 90 | 
16 | COC(=O)CCCC(=O)O [5-Methoxy-5-oxopentanoic acid] | > 90 | 
17 | Cc1cc(-c2ccc(N)c(C)c2)ccc1N [3,3'-Dimethylbenzidine] |  | CC50 at 24 h (AC50 (uM) modified / 1000, Tox21_110001=Tox21_201292, viability, 1 nM T3 present, 24 h): > 90 µM
18 | CC(C)COC(=O)c1ccccc1 [Isobutyl benzoate] | > 90 | 
19 | CC(C)=CCCC(C)CC(=O)O (stereo not shown) [Citronellic acid] | > 90 | 
20 | C[N+](C)(C)CCO [Cholin acetate] | > 50 | 
21 | CC(=O)c1sc(C)nc1C [5-Acetyl-2,4-dimethylthiazole] | > 90 | 

Row | Compound | CC50 at 24 h (AC50 (uM) modified / 1000) [µM] | other results
22 | CO/N=C(/C(=O)OC)c1ccccc1COc1ccccc1C [Kresoxim-methyl] | > 90 | 
23 | O=C(O)c1cc(Cl)cc(Cl)c1 [3,5-Dichlorobenzoic acid] | > 90 | 
24 | CNCc1ccccc1 [N-Methylbenzylamine hydrochloride] | > 50 | 
25 | CO[Si](CCCn1c(=O)n(CCC[Si](OC)(OC)OC)c(=O)n(CCC[Si](OC)(OC)OC)c1=O)(OC)OC [1,3,5-Tris[3-(trimethoxysilyl)propyl]-1,3,5-triazinane-2,4,6-trione] | > 70 | 
26 | COCCOCCOCCOCCOC [2,5,8,11,14-Pentaoxapentadecane] | > 90 | 
27 | CCCCCCCCCCCCCC[n+]1ccc(C)cc1 [Miripirium chloride] | 7.5 | 
28 | CC(=O)CC(C)(C)O [Diacetone alcohol] | > 90 | 
29 | O=C(O)[C@H]1CN(C/C=C/P(=O)(O)O)CCN1 [Midafotel] | > 50 | 
30 | ClCCCCl [1,3-Dichloropropane] |  | CC50 at 24 h (AC50 (uM) modified / 1000, Tox21_110001=Tox21_201140, viability, 1 nM T3 present, 24 h): > 100 µM
31 | N#CC(C#N)=C(C#N)C#N [Tetracyanoethylene] | > 100 | 
32 | C/C=C(/CC[C@@H](C)[C@H]1CC[C@H]2C3=CC[C@H]4[C@H](C)[C@@H](O)CC[C@]4(C)[C@H]3CC[C@]12C)C(C)C [Sitosterol alpha1] | > 50 | 
33 | CCCCCC[C@@H](O)C/C=C\CCCCCCCC(=O)O [(9Z,12R)-12-Hydroxyoctadec-9-enoic acid] | 80.8 | 
34 | CCCCCCCCCCCCCCC(Br)C(=O)O (stereo not shown) [2-Bromohexadecanoic acid] | > 90 | 
35 | O=C(Oc1ccccc1)c1ccccc1O [Phenyl salicylate] | > 50 | 
36 | Cc1cc(NC(=O)C2=C(O)c3ccccc3S(=O)(=O)N2C)no1 [Isoxicam] | > 50 | 
37 | COC(Cc1ccccc1)OC [(2,2-Dimethoxyethyl)benzene] | > 90 | 
38 | CCC(=O)O[C@H]1CC[C@H]2[C@@H]3CCC4=CC(=O)CC[C@]4(C)[C@H]3CC[C@]12C [Testosterone propionate] |  | CC50 at 24 h (AC50 (uM) modified / 1000, Tox21_110001=Tox21_110330, viability, 1 nM T3 present, 24 h): > 20 µM; CC50 at 24 h (AC50 (uM) modified / 1000, Tox21_110001=Tox21_302270, viability, 1 nM T3 present, 24 h): 55 µM
39 | CN(C)CCOC(=O)C(c1ccccc1)C1(O)CCCC1 (stereo not shown) [Cyclopentolate hydrochloride] | > 50 | 
40 | COc1ccc(N=[N+]([O-])c2ccc(OC)cc2)cc1 [4-Azoxyanisole] | > 90 | 
41 | C=CC(=O)O [Acrylic acid] | > 50 | 
42 | CCCC(C)CC (stereo not shown) [3-Methylhexane] | > 90 | 

Source: article PMC6792352, “Limited Chemical Structural Diversity Found to Modulate Thyroid Hormone Receptor in the Tox21 Chemical Library” (Environmental Health Perspectives, 2019)
